Experimental data taken from ChEMBL document CHEMBL6121046, “Discovery of Novel Hydrazide-Based HDAC3 Inhibitors as Epigenetic Immunomodulators for Cancer Immunotherapy” (J Med Chem, 2025).
Activity calls are given as the source filed them. The rule behind the calls is not given here.

Tests used:
[1] = test system: MC-38; experiment: Induction of mitochondrial membrane damage in mouse MC38 cells assessed as decrease in JC-1 aggregation by measuring red fluorescence at 4 uM measured after 48 hrs (reference value: 96.70%); format: functional; set-up: scale not given: the % may be the effect or the level left
[2] = MRT (0 to t) in Sprague-Dawley rat at 20 mg/kg, po measured upto 12 hrs by LC-MS/MS analysis; format: ADME, organism-based; conditions: in vivo
[3] = Toxicity in C57BL/6 mouse allografted with mouse MC38 cells assessed as urea nitrogen (BUN) level in serum at 50 mg/kg, po treated 5 days after cell inoculation 19 th day; format: organism-based; conditions: in vivo, 360 h, time 15 day
[4] = test system: MC-38; experiment: Induction of PD-L1 expression in mouse MC38 cells in presence of JQ-1 BRD4 inhibitor at 2 uM measured after 24 hrs incubation by Western blot analysis; format: functional, cell-based
[5] = test system: MC-38; experiment: Induction of mitochondrial membrane damage in mouse MC38 cells assessed as decrease in JC-1 aggregation by measuring red fluorescence at 8 uM measured after 48 hrs (reference value: 96.70%); format: functional; set-up: scale not given: the % may be the effect or the level left
[6] = Toxicity in C57BL/6 mouse allografted with mouse MC38 cells assessed as pathological changes in spleen at 50 mg/kg, po treated 5 days after cell inoculation 19 th day by hematoxylin and eosin analysis; format: organism-based; conditions: in vivo, 360 h, time 15 day
[7] = Toxicity in C57BL/6 mouse allografted with mouse MC38 cells assessed as creatinine (CRE) level in serum at 50 mg/kg, po treated 5 days after cell inoculation 19 th day; format: organism-based; conditions: in vivo, 360 h, time 15 day
[8] = test system: Mus musculus; experiment: Immunomodulatory effect in C57BL/6 mouse allografted mouse MC38 cells assessed as increase in tumor infiltrating lymphocytes by measuring increase in […] in mouse lymph nodes at 50 mg/kg, po treated 5 days after cell inoculation 19 th day by flow cytometry analysis (reference value: 20.3%); format: functional; conditions: time 15 day
[9] = Toxicity in C57BL/6 mouse allografted with mouse MC38 cells assessed as pathological changes in heart at 50 mg/kg, po treated 5 days after cell inoculation 19 th day by hematoxylin and eosin analysis; format: organism-based; conditions: in vivo, 360 h, time 15 day
[10] = test system: MC-38; experiment: Induction of ROS production in mouse MC38 cells assessed as increase in intracellular ROS level measured after 48 hrs by flow cytometry; format: functional, cell-based
[11] = test system: Mus musculus; experiment: Immunomodulatory effect in C57BL/6 mouse allografted mouse MC38 cells assessed as increase in tumor infiltrating lymphocytes by measuring increase in CD4+ T helper cells in tumor at 50 mg/kg, po treated 5 days after cell inoculation 19 th day by flow cytometry analysis (reference value: 2.57%); format: functional; conditions: time 15 day
[12] = test system: Mus musculus; experiment: Immunomodulatory effect in C57BL/6 mouse allografted mouse MC38 cells assessed as increase in tumor infiltrating lymphocytes by measuring increase in CD4+ T helper cells in mouse lymph nodes in presence of NP19 PD-L1 inhibitor at 50 mg/kg, po treated 5 days after cell inoculation 19 th day by flow cytometry analysis (reference value: 15.5%); format: functional; conditions: time 15 day
[13] = AUC (0 to t) in Sprague-Dawley rat at 20 mg/kg, iv measured upto 12 hrs by LC-MS/MS analysis; format: ADME, organism-based; conditions: in vivo
[14] = test system: Mus musculus; experiment: Induction of PD-L1 expression in tumor in C57BL/6 mouse allografted with mouse MC38 cells in presence of NP19 PD-L1 inhibitor at 50 mg/kg, po treated 5 days after cell inoculation 19 th day by immunofluorescence analysis; format: functional, organism-based; conditions: time 15.0 day
[15] = test system: MC-38; experiment: Induction of ROS production in mouse MC38 cells assessed as increase in intracellular ROS level measured after 48 hrs by DCFH-DA/Brightfield - fluorescence imaging analysis; format: functional, cell-based
[16] = Cmax in Sprague-Dawley rat at 20 mg/kg, po measured upto 12 hrs by LC-MS/MS analysis; format: ADME, organism-based; conditions: in vivo
[17] = test system: Mus musculus; experiment: Immunomodulatory effect in C57BL/6 mouse allografted mouse MC38 cells assessed as increase in tumor infiltrating lymphocytes by measuring increase in […] in mouse spleen in presence of NP19 PD-L1 inhibitor at 50 mg/kg, po treated 5 days after cell inoculation 19 th day by flow cytometry analysis (reference value: 13.6%); format: functional; conditions: time 15 day
[18] = test system: Mus musculus; experiment: Immunomodulatory effect in C57BL/6 mouse allografted mouse MC38 cells assessed as increase in tumor infiltrating lymphocytes by measuring increase in CD4+ T helper cells in mouse blood in presence of NP19 PD-L1 inhibitor at 50 mg/kg, po treated 5 days after cell inoculation 19 th day by flow cytometry analysis (reference value: 0.27%); format: functional; conditions: time 15 day
[19] = test system: Mus musculus; experiment: Immunomodulatory effect in C57BL/6 mouse allografted mouse MC38 cells assessed as increase in tumor infiltrating lymphocytes by measuring increase in CD8+ T […] cells in tumor in presence of NP19 PD-L1 inhibitor at 50 mg/kg, po treated 5 days after cell inoculation 19 th day by flow cytometry analysis (reference value: 2.32%); format: functional; conditions: time 15 day
[20] = MRT (0 to infinity) in Sprague-Dawley rat at 20 mg/kg, po measured upto 12 hrs by LC-MS/MS analysis; format: ADME, organism-based; conditions: in vivo
[21] = test system: MC-38; experiment: In vivo antitumor activity against mouse MC38 cells allografted in C57BL/6 mouse assessed as decrease in […] positive cells in tumor in presence of NP19 PD-L1 inhibitor at 50 mg/kg, po treated 5 days after cell inoculation 19 th day by immunofluorescence analysis; format: functional, organism-based; conditions: time 15.0 day
[22] = test system: Mus musculus; experiment: Immunomodulatory effect in C57BL/6 mouse allografted mouse MC38 cells assessed as increase in tumor infiltrating lymphocytes by measuring increase in CD4+ T helper cells in mouse spleen at 50 mg/kg, po treated 5 days after cell inoculation 19 th day by flow cytometry analysis (reference value: 10.8%); format: functional; conditions: time 15 day
[23] = Toxicity in C57BL/6 mouse allografted with mouse MC38 cells assessed as pathological changes in liver at 50 mg/kg, po treated 5 days after cell inoculation 19 th day by hematoxylin and eosin analysis; format: organism-based; conditions: in vivo, 360 h, time 15 day
[24] = Tmax in Sprague-Dawley rat at 20 mg/kg, po measured upto 12 hrs by LC-MS/MS analysis; format: ADME, organism-based; conditions: in vivo
[25] = test system: Mus musculus; experiment: Immunomodulatory effect in C57BL/6 mouse allografted mouse MC38 cells assessed as increase in tumor infiltrating lymphocytes by measuring increase in […] in mouse blood at 50 mg/kg, po treated 5 days after cell inoculation 19 th day by flow cytometry analysis (reference value: 0.35%); format: functional; conditions: time 15 day
[26] = test system: Mus musculus; experiment: Immunomodulatory effect in C57BL/6 mouse allografted with mouse MC38 cells assessed as increase in tumor infiltrating lymphocytes by measuring increase in CD3+ CD4+ cells in presence of NP19 PD-L1 inhibitor at 50 mg/kg, po treated 5 days after cell inoculation 19 th day by flow cytometry analysis; format: functional, organism-based; conditions: time 15.0 day
[27] = test system: Mus musculus; experiment: Immunomodulatory effect in C57BL/6 mouse allografted with mouse MC38 cells assessed as increase in tumor infiltrating lymphocytes by measuring increase in CD3+ CD4+ cells at 50 mg/kg, po treated 5 days after cell inoculation 19 th day by flow cytometry analysis; format: functional, organism-based; conditions: time 15.0 day
[28] = AUC (0 to t) in Sprague-Dawley rat at 20 mg/kg, po measured upto 12 hrs by LC-MS/MS analysis; format: ADME, organism-based; conditions: in vivo
[29] = test system: MC-38; experiment: In vivo antitumor activity against mouse MC38 cells allografted in C57BL/6 mouse assessed as apoptosis in tumor at 50 mg/kg, po treated 5 days after cell inoculation 19 th day relative to control; format: functional, organism-based; conditions: time 15.0 day

Q: For `CCCNNC(=O)c1ccc(CNC(=O)c2cnc(-c3ccc4occc4c3)[nH]2)cc1`, which Activity [1] is on record?
A: Its Activity is 72.13%.

Q: And the MRT last at 12 h [2]?
A: The MRT last at 12 h was 4.2 h.

Q: And the Activity [3]?
A: Its Activity is “Non-toxic”.

Q: And the Activity [4]?
A: The Activity was “Active”.

Q: What about the Activity [5] of the same compound?
A: Its Activity is 71.37%.

Q: And the Activity [6]?
A: Its Activity is “Non-toxic”.

Q: And the Activity [7]?
A: The Activity was “Non-toxic”.

Q: And the Activity [8]?
A: The Activity was 29.6%.

Q: And the Activity [9]?
A: The Activity was “Non-toxic”.

Q: And the Activity [10]?
A: Its Activity is “Dose-dependent-effect”.

Q: What about the Activity [11] of the same compound?
A: The Activity was 1.72%.

Q: And the Activity [12]?
A: The Activity was 20%.

Q: What about the AUC(0-t) at 12 h [13] of the same compound?
A: The AUC(0-t) at 12 h was 1250 ng·h/mL.

Q: What about the Activity [14] of the same compound?
A: Its Activity is “Active”.

Q: What about the Activity [15] of the same compound?
A: The Activity was “Dose-dependent-effect”.

Q: And the Cmax [16]?
A: The Cmax was 347 ng/mL.

Q: And the Activity [17]?
A: The Activity was 17.4%.

Q: And the Activity [18]?
A: Its Activity is 0.98%.

Q: What about the Activity [19] of the same compound?
A: Its Activity is 7.83%.

Q: And the MRT inf [20]?
A: The MRT inf was 4.33 h.

Q: And the Activity [21]?
A: The Activity was “Active”.

Q: What about the Activity [22] of the same compound?
A: Its Activity is 12.9%.

Q: And the Activity [23]?
A: The Activity was “Non-toxic”.

Q: What about the Tmax [24] of the same compound?
A: The Tmax was 52.8 min.

Q: And the Activity [25]?
A: Its Activity is 0.56%.

Q: And the Activity [26]?
A: Its Activity is “Active”.

Q: And the Activity [27]?
A: Its Activity is “Active”.

Q: And the AUC(0-t) at 12 h [28]?
A: Its AUC(0-t) at 12 h is 1420 ng·h/mL.

Q: What about the Activity [29] of the same compound?
A: Its Activity is “Active”.
